How the values were obtained:
[1] = DPPH radical-scavenging ability (RS50); type: biochemical; conditions: for EC50: concentration at which DPPH radical-scavenging rate was 50%, room temperature 30 minutes, absorbance 595 nm
Procedure: In order to evaluate the chemical antioxidant ability of the selenium-containing compound (chemical formula 4: oxidized dimer) according to one embodiment of the invention, the 1,1-diphenyl-2-picrylhydrazyl (DPPH) radical-scavenging ability was measured (Hideo Kimura, Kota Naganuma, Masato Kojima, Masakazu Komatsu, Takumi Onda, and Masao Tsuji, Yamanashi Prefectural Industrial Technology Center Report, No. 22, pp. 59-63 (2008)).
Specifically, a selenium-containing compound (selenium content: 1.62 μM) derived from the meat of Xiphias gladius, a 10 mM aqueous solution of a water-soluble vitamin E derivative (commercially available antioxidant) (Trolox (registered trademark) (CAS No.: 56305-04-5, manufactured by Roche)), and a 4.36 mM aqueous solution of (+)-ergothioneine (CAS No.: 497-30-3, manufactured by SIGMA) were repeatedly 2-fold diluted with purified water to prepare 2 to 128-fold diluted test solutions.
10 μl of the test solution and 100 μl of a DPPH solution (0.35 mM, prepared by dissolving 1.38 mg of DPPH in 5 ml of ethanol, and adding 5 ml of a 0.1 M phosphate buffer (pH: 6.8) to the solution) were mixed on a 96-well micro test plate (BD Falcon (registered trademark), #1722, manufactured by Becton, and Dickinson and Company), and reacted at room temperature for 30 minutes in a dark place. The absorbance at 595 nm was then measured. A case of using purified water (absorbance: 0.59) as the test solution was determined that the DPPH radical-scavenging rate was 0%, and a case of using 10 mM Trolox (registered trademark) (absorbance: 0.19) as the test solution was determined that the DPPH radical-scavenging rate was 100%. The concentration at which the DPPH radical-scavenging rate was 50% was determined to be the RS50 of each substance, and taken as the antioxidant ability.

[2] = test system: hemoglobin of rabbit red cells; assay: Metmyoglobin formation inhibitory effect (hemoglobin collected from red cells); type: cell-based; conditions: 10, 25 or 50 nM in medium; hemoglobin solution incubated 37° C. 3 hours; versus control
Procedure: (§1) Preserved rabbit blood (Nippon Biotest Laboratories Inc.) was washed three times with a physiological saline solution (centrifuged at 2000 rpm and 4° C. for 5 min) to collect red cells. The red cells were suspended in a 4-fold amount of an RPMI medium (GIBCO (registered trademark) RPMI Medium 1640 manufactured by Invitrogen Co.), and cultured at 37° C. for 1 day using a carbon dioxide incubator. The selenium-containing compound was added to the culture solution so that the final concentration of the selenium-containing compound in the medium was 10, 25, or 50 nM (control: the selenium-containing compound was not added), and the cells were cultured. The red cells were then collected by centrifugation (2000×g, 4° C., 5 min), washed three times with a phosphate buffered saline (PBS), and collected by centrifugation. The red cells were hemolyzed by adding a 10 mM sodium phosphate buffer (pH: 7.2) to the red cell pellets, and centrifuged (15,000×g, 4° C., 10 min). The supernatant hemoglobin solution was then collected. The hemoglobin solution was diluted with a 100-fold amount of a 50 mM sodium phosphate buffer (pH: 6.8), and incubated at 37° C. for 3 hours. The absorbance ratio at 405 nm and 430 nm before and after incubation was measured, and the rate of metmyoglobin formation of the hemoglobin was calculated.

[3] = test system: human vessel endothelial cells; assay: Cell proliferation rate (MTT) under hydrogen peroxide oxidative stress; type: cell-based; conditions: 5 mM, 1 hour pre-culture, then hydrogen peroxide 25 or 50 μM, 24 hours
Procedure: The in vivo antioxidant effect of the selenium-containing compound (chemical formula 4: oxidized dimer) according to one embodiment of the invention was determined using human vessel endothelial cells. Specifically, human vessel endothelial cells (10,000 cells/ml) were cultured on a 48-well plate using an MCDB131 medium containing 10% fetal bovine serum. The selenium-containing compound was added to the culture solution so that the final concentration was 5 mM (control: the selenium-containing compound was not added), and the cells were cultured at 37° C. for 1 hour under 5% carbon dioxide. After the addition of hydrogen peroxide to a final concentration of 25 or 50 μM, the cells were cultured at 37° C. for 24 hours under 5% carbon dioxide. The cell proliferation rate was then determined by the MTT assay. […] Specifically, it was confirmed that the selenium-containing compound (chemical formula 4: oxidized dimer) according to one embodiment of the invention has an in vivo antioxidant effect.

[4] = test system: AT cells derived from the skin of a human patient with ataxia telangiectasia syndrome (AT2KY); assay: Cell proliferation-promoting effect on AT cells (cell count by trypan blue staining); type: cell-based; conditions: 0-100 nM, 37° C., 0-5 days
Procedure: (§2) AT cells derived from the skin of a human patient with ataxia telangiectasia syndrome (AT2KY, Health Science Research Resources Bank, JCRB0316), human skin TIG-S3 cells (Health Science Research Resources Bank, JCRB0544), and human kidney HEK293 cells (Health Science Research Resources Bank, JCRB9068) were cultured in a DMEM medium containing 10% fetal bovine serum (15,000 cells/ml).
The selenium-containing compound was added to each culture medium (containing 2% serum) so that the final concentration was 0, 5, 10, 25, 50, or 100 nM. The Danio rerio embryo ZE cells were cultured at 25° C., the Seriola quinqueradiata tail fin YT cells were cultured at 20° C., and Oncorhynchus mykiss gonad RTG-2 cells were cultured at 15° C., and the human vessel endothelial cells, the AT cells derived from the skin of a human patient with ataxia telangiectasia syndrome, the human skin TIG-S3 cells, and the human kidney HEK293 cells were cultured at 37° C. The cell count was determined by trypan blue staining after culturing the cells for 0, 1, 2, 3, 4, and 5 days. […]

rabbit red cells = assay: Active oxygen level in red cells (hydroxyphenyl fluorescein); type: cell-based; conditions: HPF fluorescence; versus control
Procedure: as §1, with “The red cells were hemolyzed by adding a 10 mM sodium phosphate buffer (pH: 7.2) to the red cell pellets, and centrifuged (15,000×g, 4° C., 10 min). The supernatant hemoglobin solution was then collected. The hemoglobin solution was diluted with a 100-fold amount of a 50 mM sodium phosphate buffer (pH: 6.8), and incubated at 37° C. for 3 hours.” left out
The active oxygen level in the red cells was also measured using hydroxyphenyl fluorescein (HPF) (manufactured by Sekisui Medical Co., Ltd.). […] The fluorescence intensity (excitation wavelength: 490 nm, fluorescence wavelength: 515 nm) due to the reaction product with active oxygen was measured, and used as an index of the active oxygen level.

[5] = test system: heme protein (myoglobin, hemoglobin); assay: Heme iron binding effect (Se/Fe determination in heme proteins); set-up: species or system Thunnus orientalis, rabbit, Physeter macrocephalus; conditions: Se/Fe molar ratio of purified myoglobin and hemoglobin 0.003, 0.0003, 0.001
Procedure: Since it was confirmed that the selenium-containing compound has a heme protein auto-oxidation inhibitory effect (see “5. Metmyoglobin formation inhibitory effect of selenium-containing compound”), the binding capability of the selenium-containing compound with heme proteins was determined. Physeter macrocephalus (sperm whale) myoglobin available from SIGMA was used. 100 g of the dark muscle of Thunnus orientalis was mixed with a 5-fold amount of cold water, ground using a POLYTRON™ homogenizer, and centrifuged (6000×g, 10 min). The supernatant liquid was collected, and passed through a Sephacryl-100 column (16 mm×60 cm, manufactured by Pharmacia) that was equilibrated with a 0.05 M Tris-HCl buffer (pH: 7) containing 0.1 M salt to purify myoglobin derived from the dark muscle of Thunnus orientalis. […]
The selenium content in the Physeter macrocephalus myoglobin, the Thunnus orientalis myoglobin, the rabbit hemoglobin, and the Thunnus orientalis hemoglobin was measured. Selenium was detected from each sample. The elements contained in the Physeter macrocephalus myoglobin were measured by HPLC-ICP-MS.
The sample was wet-decomposed using nitric acid and hydrogen peroxide. Iron was quantitatively determined using an inductively coupled plasma atomic emission spectrometer (ICP-AES) (“ICPE-9000” manufactured by Shimadzu Corporation), and selenium was quantitatively determined by fluorometry. […]

[6] = test system: animal cells (ZE, YT, RTG-2, HUV-EC-C, AT2KY, TIG-S3, HEK293 cells); assay: Cell proliferation-promoting effect on cultured cells (cell count by trypan blue staining); type: cell-based; conditions: 0-100 nM, 0-5 days, fish and human cell lines
Procedure: Specifically, Danio rerio embryo ZE cells (National Research Institute of Fisheries Science), Seriola quinqueradiata tail fin YT cells (National Research Institute of Fisheries Science), and Oncorhynchus mykiss gonad RTG-2 cells (ATCCCCL55) were cultured in an L-15 medium containing 2% fetal bovine serum (30,000 cells/ml).
Human vessel endothelial cells (human umbilical cord vein HUV-EC-C, Health Science Research Resources Bank (http://www.jhsf.or.jp)) were cultured in an MCDB131 medium containing 10% fetal bovine serum (10,000 cells/ml).
as §2
The selenium-containing compound was added to each culture medium (containing 2% serum) so that the final concentration was 0, 5, 10, 25, 50, or 100 nM. […] The cell count was determined by trypan blue staining after culturing the cells for 0, 1, 2, 3, 4, and 5 days.

[7] = test system: human vessel endothelial cells (human umbilical cord vein HUV-EC-C); assay: MTT assay of human vessel endothelial cells cultured with selenium compounds; type: cell-based
Procedure: In order to clarify the intracellular function of the selenium-containing compound (chemical formula 4: oxidized dimer) according to one embodiment of the invention, the selenium-containing compound (chemical formula 4: oxidized dimer) according to one embodiment of the invention was administered to human vessel endothelial cells (human umbilical cord vein HUV-EC-C, Health Science Research Resources Bank (http://www.jhsf.or.jp)).
Specifically, human vessel endothelial cells (10,000 cells/ml) were cultured on a 48-well plate using an MCDB131 medium (manufactured by Invitrogen) containing 10% fetal bovine serum. […] The passage number was set to 5 or less in order to maintain the properties of the human vessel endothelial cells.
The mitochondrial respiratory chain activity was determined using an MTT assay kit (manufactured by Nacalai Tesque, Inc.). Specifically, after culturing the human vessel endothelial cells, an MTT solution was added to the culture solution in an amount 1/10th of that of the culture solution, and the cells were cultured at 37° C. for 3 hours under 5% carbon dioxide. An equal amount of isopropanol was then added to the culture solution to extract a formazan dye, and the absorbance at 595 nm was determined.

[8] = Solubility (physico-chemical properties); type: physicochemical; conditions: solvents as named in the value

C[N+](C)(C)[C@@H](Cc1c[nH]c(=S)[nH]1)C(=O)[O-] [L-(+)-ergothioneine, reference compound]
EC50 [1]: 1700 µM

Cc1c(C)c2c(c(C)c1O)CCC(C)(C(=O)O)O2 (stereo not shown) [Trolox, 6-hydroxy-2,5,7,8-tetrametylchroman-2-carboxylic acid, reference compound]
EC50 [1]: 880 µM

C[N+](C)(C)C(Cc1cnc([Se][Se]c2ncc(CC(C(=O)[O-])[N+](C)(C)C)[nH]2)[nH]1)C(=O)[O-] (stereo not shown) [chemical formula 4, 3,3′-(2,2′-diselanediylbis(1H-imidazole-5,2-diyl))bis(2-(trimethylammonio)propanoate)]
rate of metmyoglobin formation of hemoglobin [2]: lower than that of the control
cellular proliferative potential under oxidative stress [3]: improved
concentration giving radical-scavenging ability equal to L-(+)-ergothioneine, as fraction of ergothioneine concentration ([1]; DPPH, relative to L-(+)-ergothioneine): 1/907
concentration giving radical-scavenging ability equal to Trolox, as fraction of Trolox concentration ([1]; DPPH, relative to water-soluble vitamin E derivative (Trolox)): 1/456
radical-scavenging ability higher than Trolox by a factor ([1]; chemical test, relative to Trolox): about 500
EC50 [1]: 1.9 µM
proliferation of AT cells [4]: effect of promoting proliferation of the AT cells
active oxygen level in the red cells (rabbit red cells): lower than that of the control
binding to heme protein [5]: bound to a heme protein
cell proliferation (cell count) [6]: significantly promotes proliferation of animal cells
effect on cell proliferation (MTT) ([7]; 5 mM, 24 hours, 37° C.): cell proliferation-promoting effect
cytotoxicity compared with known selenium-containing compounds ([7]; versus selenious acid, selenocystine, selenomethionine): very low cytotoxicity
Solubility ([8]; in acetone and acetonitrile): scarcely soluble in acetone and acetonitrile
Solubility ([8]; in water, ethanol and methanol): Soluble in water, ethanol, and methanol;

N[C@@H](C[Se][Se]C[C@H](N)C(=O)O)C(=O)O [selenocystine]
effect on cell proliferation (MTT) ([7]; 5 nM added to culture medium): cell death occurred

C[Se]CC[C@H](N)C(=O)O [selenomethionine]
effect on cell proliferation (MTT) ([7]; 5 nM added to culture medium): cell death occurred

O=[Se](O)O [sodium selenite]
effect on cell proliferation (MTT) ([7]; 5 nM added to culture medium): cell death occurred
